PubChem BioAssay (NCI)
“And” between values parts separate entries of the source, which are not always exact repeats. Equal entries are not always repeated.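 The compound was tested at five concentrations on cells cultured in 96-well plates, with a 48-hour exposure period. GI50: concentration for 50% inhibition of growth. At the TGI there is no net growth.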

Key:
Test in all cases: NCI-60 cell line screen, 48 h
DLD-1 colon = tested on: DLD-1 colon
DMS 114 small cell lung = tested on: DMS 114 small cell lung
RXF-631 renal = tested on: RXF-631 renal
SNB-78 CNS = tested on: SNB-78 CNS
XF 498 CNS = tested on: XF 498 CNS
DMS 273 small cell lung = tested on: DMS 273 small cell lung
HOP-18 NSCLC = tested on: HOP-18 NSCLC
MCF7 breast = tested on: MCF7 breast
MDA-N = tested on: MDA-N

SMILES	TGI (DLD-1 colon) [µM]	TGI (DMS 273 small cell lung) [µM]	GI50 (MCF7 breast)	TGI (MCF7 breast)	further results
CCC1(c2ccncc2)CCC(=O)NC1=O (configuration not stated)	> 100				TGI (DMS 114 small cell lung): > 100 µM; TGI (RXF-631 renal): > 100 µM; TGI (SNB-78 CNS): > 100 µM; TGI (XF 498 CNS): > 100 µM
O=C(CN1C(=O)c2ccccc2C1=O)OC1C=CCCC1 (configuration not stated)	> 100	> 100			TGI (HOP-18 NSCLC): > 100 µM; TGI (SNB-78 CNS): > 100 µM
CCCCCCCCCCCCCCCC[N+](C)(C)C			0.313 µM and 1.86 µM	1.44 µM and 5.2 µM	
Cc1cc2cc(Oc3ccnc(Nc4cccc(CS(=O)(=O)NCCN(C)C)c4)n3)ccc2[nH]1			4.03 µM	18.4 µM	
CC(C)NCCCNC1=C(Cl)C(=O)c2ccccc2C1=O			4.13 µM	17.5 µM	
COc1ccccc1NC(=O)N/C(N)=N/c1nc2ccccc2s1			0.0401 µM	> 100 µM	
COc1ccc(OC)c(-c2cn3nc(-c4c[nH]c5ccc(Br)cc45)sc3n2)c1			1.77 µM	5.13 µM	
CCN(CCc1ccc(F)cc1)c1ccc(CO)c(Cl)c1			4.72 µM	19.9 µM	
CCCCCCCCCCSS(=O)(=O)c1ccc(C)cc1	29.8	23			TGI (DMS 114 small cell lung): 30.4 µM; TGI (HOP-18 NSCLC): 43.1 µM; TGI (RXF-631 renal): 17.2 µM; TGI (SNB-78 CNS): 29.5 µM; TGI (XF 498 CNS): 26 µM
Cc1ccc(S(=O)(=O)NC(C)C(=O)O)cc1 (configuration not stated)	> 100	> 100			TGI (HOP-18 NSCLC): > 100 µM; TGI (RXF-631 renal): > 100 µM; TGI (XF 498 CNS): > 100 µM
CN1NC(c2ccccc2)=C(C#N)C(=O)CC1c1ccccc1Cl (configuration not stated)	> 100	> 100			TGI (DMS 114 small cell lung): > 100 µM; TGI (HOP-18 NSCLC): > 100 µM; TGI (RXF-631 renal): > 100 µM; TGI (SNB-78 CNS): > 100 µM; TGI (XF 498 CNS): > 100 µM
COc1cc(/C=C\c2cc(/C=C\c3ccc(O)c(OC)c3)n(C(=O)Nc3ccc(C(F)(F)F)cc3)n2)ccc1O			1.97 µM	10.7 µM	
O=C(O)c1cc2c3c(c1)[C@H]1C=CC[C@H]1CN3CC1CC=CC21 (some centres not stated)	> 100	> 100			TGI (DMS 114 small cell lung): > 100 µM; TGI (HOP-18 NSCLC): > 100 µM; TGI (SNB-78 CNS): > 100 µM; TGI (XF 498 CNS): > 100 µM
c1ccc(CN2CCC3(CC2)ONC2=NCCN23)cc1			71.3 µM	> 100 µM	
N#C/C(=C/c1cccs1)c1cccs1			> 100 µM	> 100 µM	
C#Cc1cccc(N2C(=O)CC(=P(c3ccccc3)(c3ccccc3)c3ccccc3)C2=O)c1	> 100				TGI (DMS 114 small cell lung): 72.6 µM; TGI (SNB-78 CNS): > 100 µM; TGI (XF 498 CNS): 38.8 µM
CC[O+]=c1cccc2ssnc1-2	> 100	> 100			TGI (HOP-18 NSCLC): > 100 µM; TGI (RXF-631 renal): > 100 µM; TGI (SNB-78 CNS): > 100 µM; TGI (XF 498 CNS): 66.9 µM
COc1ncnc2c1ncn2C/C(Br)=C(\Br)CCl			1.43 µM	3.06 µM	
COc1cc(C)c(N(C)C(=O)CN(C)C)cc1Nc1nc(Nc2cccc(F)c2C(N)=O)c2cc[nH]c2n1			2.7 µM	> 25 µM	
COc1ccc2c3c([nH]c2c1[N+](=O)[O-])C(C)N(C(=O)/C=C/c1ccccc1)CC3 (configuration not stated)		7.77			TGI (SNB-78 CNS): > 100 µM

SMILES	TGI (DLD-1 colon) [µM]	TGI (DMS 273 small cell lung) [µM]	GI50 (MCF7 breast)	TGI (MCF7 breast)	further results
COc1cc2c3c(n(CCCn4cccn4)c(=O)c2cc1OC)-c1cc2c(cc1C3=O)OCO2			0.523 µM	> 55.2 µM	
Cn1c(-c2c(N)n(Cc3ccc(Cl)cc3)c3nc(C#N)c(C#N)nc23)nc2ccccc21			3.94 µM	> 50 µM	
O=C(O)C1(C(=O)O)CCN(S(=O)(=O)c2ccccc2)CC1				> 100 µM	TGI (MDA-N): > 100 µM
CN(C)c1ccc2c(SCC(=O)OCC(=O)[C@@]3(O)CC[C@H]4[C@@H]5CCC6=CC(=O)C=C[C@]6(C)[C@H]5C(=O)C[C@@]43C)c3ccc(N(C)C)cc3nc2c1				> 100 µM	TGI (MDA-N): > 100 µM
CCOc1ccc2c(-c3ccnc(Nc4cccc(C(F)(F)F)c4)n3)cnn2n1			0.979 µM	> 12.2 µM	
CN1CCN(c2ccc(NC3=C(Cl)C(=O)c4ncccc4C3=O)cc2C(F)(F)F)CC1			1.7 µM	4.23 µM	
COc1ccc(-n2nc(C)c3c(Nc4ccc(NC(=O)Nc5cc(C(F)(F)F)ccc5F)cc4)ncnc32)cc1			2.69 µM	14.7 µM	
CC(C)(C)OC(=O)N(CCCn1c2c(c3ccccc3c1=O)C(=O)c1ccccc1-2)CCN(CCCn1c2c(c3ccccc3c1=O)C(=O)c1ccccc1-2)C(=O)OC(C)(C)C			21.3 µM	> 50 µM	
O=C(Oc1ccccc1Cl)c1cccnc1Nc1ccnc(C(F)(F)F)c1			3.66 µM	17.5 µM	
CCCC(=O)C(CC)/C(CCC(=O)N(Cc1ccccc1)Cc1ccccc1)=N/NC(=O)C[N+](C)(C)C (configuration not stated)	> 100	> 100			TGI (DMS 114 small cell lung): > 100 µM; TGI (HOP-18 NSCLC): > 100 µM; TGI (SNB-78 CNS): > 100 µM; TGI (XF 498 CNS): > 100 µM
COc1ccc(/C=C2/CCOC2=O)cc1			> 100 µM	> 100 µM	
C=CC1(C)/C(=N\O)C(C)(CC)C(=O)N1O (configuration not stated)	> 100	> 100			TGI (DMS 114 small cell lung): > 100 µM; TGI (HOP-18 NSCLC): > 100 µM; TGI (RXF-631 renal): > 100 µM; TGI (SNB-78 CNS): > 100 µM; TGI (XF 498 CNS): > 100 µM
CN1CCN(c2ccc3nc(-c4ccc5nc(-c6ccc(C(F)(F)F)cc6)[nH]c5c4)[nH]c3c2)CC1			0.578 µM	2.19 µM	
CC(C)c1cccc2sc(NC(=O)C(=O)CC(=O)c3ccc(F)cc3)nc12	> 100	> 100			TGI (DMS 114 small cell lung): > 100 µM; TGI (RXF-631 renal): > 100 µM; TGI (SNB-78 CNS): > 100 µM; TGI (XF 498 CNS): > 100 µM
CC(C)(C)c1ccc(NC(=O)c2cc(=O)c3ccccc3[nH]2)c(C(C)(C)C)c1O			3.35 µM	12.9 µM	
C/C(=C\c1ccccc1)C(O)S(=O)(=O)O (configuration not stated)	> 100	> 100			TGI (DMS 114 small cell lung): > 100 µM; TGI (HOP-18 NSCLC): > 100 µM
CCCCCCCCOC(=O)c1cc(O)c(O)c(O)c1			4.14 µM	26.7 µM	
COc1cccc(C(=O)O)c1Cc1cccc2ccccc12	> 100	> 100			TGI (HOP-18 NSCLC): > 100 µM
COc1ccc(CNCCCN2C(=O)c3ccc4c5c(ccc(c35)C2=O)C(=O)N(CCCNCCCCNCCCN)C4=O)c(OC)c1OC			0.355 µM	1.62 µM	
